Measured values taken from a melting point compilation (Tetko et al.).

Compared with `NC(=O)c1ccccc1OCc1cccc(C(=O)O)c1`, `COc1cc(-c2ccccc2)ccc1C=O` is lower in melting point: 238 to 240 °C for the first, 91 to 93 °C for the second.

Compared with `Cc1ccc(-c2nnc(N)o2)cc1F`, `Cn1cnnc1-c1ccc(N)cc1` is lower in melting point: 264 to 266 °C for the first, 256 to 258 °C for the second.

First: CCOc1ccc2c(c1)C(=O)NC2=O
Second: CCOc1cc(C=O)ccc1OC(F)F
The melting point of the first is higher: 159 to 161 °C for the first, 30 to 32 °C for the second.

Compared with `Cc1csc(NC(=O)CCl)n1`, `CCc1nnc(NC(=O)CCl)s1` is lower in melting point: 127 to 129 °C for the first, 101 to 103 °C for the second.

Compared with `Cc1c(N)cccc1C#N`, `Cc1nc(S)c(C#N)cc1C(=O)Nc1ccccc1` is higher in melting point: 90 to 92 °C for the first, 201 to 203 °C for the second.

First: CS(=O)(=O)Cc1cc(N)ccc1Cl
Second: CON(C)S(=O)(=O)c1cc([N+](=O)[O-])ccc1Cl
The melting point of the first is higher: 135 to 137 °C for the first, 123 to 125 °C for the second.

Compared with `O=C(O)c1ccc2c(=O)n(-c3cccc(Cl)c3)c(=O)[nH]c2c1`, `Cc1cc(C(=O)O)c(C)n1-c1ccc(F)cc1` is lower in melting point: 365 to 367 °C for the first, 232 to 234 °C for the second.

First: NCc1cccc(NC(=O)c2ccc(F)cc2)c1
Second: COc1ccc(CNc2ccc3[nH]c(=O)[nH]c3c2)cc1
The melting point of the first is lower: 132 to 134 °C for the first, 254 to 256 °C for the second.

First: O=C(O)c1ccn(-c2ccccc2Cl)n1
Second: Nc1ccn(-c2ccc(Cl)cc2Cl)n1
The melting point of the first is higher: 187 to 189 °C for the first, 114 to 116 °C for the second.

First: CCOC(=O)Cn1ncc2ccccc21
Second: O=C(O)CN1Cc2ccccc2C1=O
The melting point of the first is lower: 34 to 36 °C for the first, 217 to 219 °C for the second.

First: N=C1N=C2C=CC(Br)=CN2Cc2ccccc21
Second: O=c1[nH]cnc2cc3ccccc3cc12
The melting point of the first is lower: 178 to 180 °C for the first, 282 to 284 °C for the second.

First: Cc1nc2ccccc2c2c(N)c3ccccc3n12
Second: Sc1ncc(-c2ccccc2)n1-c1ccccc1
The melting point of the first is lower: 200 to 202 °C for the first, 250 to 252 °C for the second.

Compared with `Fc1ccc(CBr)c2ncccc12`, `O=C(O)c1c[nH]c2ncccc12` is higher in melting point: 94 to 96 °C for the first, 213 to 215 °C for the second.

First: Cc1ccc(F)c(-n2cc(O)c(C(=O)O)n2)c1
Second: Cc1c(C(=O)O)nnn1-c1cccc2ncccc12
The melting point of the first is lower: 201 to 203 °C for the first, 209 to 211 °C for the second.

First: Nc1nnc(N)s1
Second: Nc1nnc(-c2cccs2)[nH]1
The melting point of the first is lower: 192 to 194 °C for the first, 202 to 204 °C for the second.

Compared with `CCN(CC)S(=O)(=O)c1ccc(O)c(N)c1`, `CCn1c(C)nc2cc(S(=O)(=O)C(F)F)ccc21` is higher in melting point: 74 to 76 °C for the first, 161 to 163 °C for the second.

Compared with `NNC(=O)C(=O)Nc1ccccn1`, `Nc1ccnc(C(=O)O)c1` is higher in melting point: 179 to 181 °C for the first, 198 to 200 °C for the second.

First: NS(=O)(=O)CC1CCCC1
Second: Cn1ccc(C(=O)N2CCC(CO)CC2)cc1=O
The melting point of the first is lower: 42 to 44 °C for the first, 174 to 176 °C for the second.

First: CC1CCN(c2ccc([N+](=O)[O-])cc2C(=O)O)CC1
Second: O=C(O)C1CCCN(c2ncnc3sccc23)C1 (stereo unspecified)
The melting point of the first is lower: 160 to 162 °C for the first, 214 to 216 °C for the second.

Compared with `CC(Cl)C(=O)NC(C)c1ccccc1` (stereo unspecified), `CC(C)NS(=O)(=O)c1ccccc1C(=O)O` is higher in melting point: 89 to 91 °C for the first, 111 to 113 °C for the second.

First: O=C(CCl)Nc1ccccc1Sc1ccccc1
Second: OCc1cnc(-c2ccccc2)s1
The melting point of the first is higher: 159 to 161 °C for the first, 72 to 74 °C for the second.

Compared with `Cc1ccn2ncc(C(=O)O)c2n1`, `OCc1noc(-c2ccccc2)n1` is lower in melting point: 256 to 258 °C for the first, 80 to 82 °C for the second.

Compared with `O=C(O)CCNC(=O)C12CC3CC(CC(C3)C1)C2`, `O=C(CCl)NC1C2CC3CC(C2)CC1C3` (stereo unspecified) is lower in melting point: 185 to 187 °C for the first, 118 to 122 °C for the second.

First: O=c1cc(CCl)nc2ccc(Cl)cn12
Second: Nc1[nH]ncc1-c1nc2cc(Cl)ccc2s1
The melting point of the first is lower: 149 to 151 °C for the first, 274 to 276 °C for the second.

First: COC(=O)NS(=O)(=O)Cl
Second: Cc1nc(S(=O)(=O)NCC(=O)O)cn1C
The melting point of the first is lower: 69 to 71 °C for the first, 217 to 219 °C for the second.

First: O=C(/C=C/c1ccc2c(c1)CCO2)N1CCCC(CO)C1 (stereo unspecified)
Second: OC1CCc2ccc(F)cc21 (stereo unspecified)
The melting point of the first is higher: 131 to 133 °C for the first, 41 to 43 °C for the second.

First: CN1C(=O)CCc2cc(N)ccc21
Second: COc1ccccc1NS(=O)(=O)c1cc(N)ccc1N1CCCCC1
The melting point of the first is lower: 101 to 103 °C for the first, 169 to 171 °C for the second.

First: Cc1cc(NC(C)C)ccc1C(N)=O
Second: Cc1ccc(F)cc1NC(=O)C(C)Cl (stereo unspecified)
The melting point of the first is higher: 132 to 134 °C for the first, 101 to 103 °C for the second.

First: CC(C)(C)OC(=O)Nc1cc2ccccc2cc1C(=O)O
Second: COc1ccc(C(=O)NCC(=O)O)cc1OC
The melting point of the first is lower: 179 to 181 °C for the first, 198 to 200 °C for the second.

First: CC(C)C(Br)C(=O)Nc1cc(Cl)ccc1Cl (stereo unspecified)
Second: O=C1CCc2c(Cl)cc(Cl)cc21
The melting point of the first is higher: 126 to 128 °C for the first, 109 to 111 °C for the second.

First: Nc1ccc(-c2nc3ccc(N)cc3[nH]2)cc1
Second: COc1ccc(C(N)Cc2ccccc2C)cc1OC (stereo unspecified)
The melting point of the first is higher: 234 to 236 °C for the first, 49 to 51 °C for the second.

Compared with `COc1ccc(C(=O)C=C(SC)SC)cc1`, `N#Cc1cccc(OCC(=O)NC2CC2)c1` is higher in melting point: 99 to 101 °C for the first, 106 to 108 °C for the second.

First: CCOC(C)c1ncc[nH]1 (stereo unspecified)
Second: Cc1sc(=O)[nH]c1C(C)C
The melting point of the first is lower: 69 to 71 °C for the first, 129 to 131 °C for the second.

First: O=C(O)CCNS(=O)(=O)c1ccccc1Cl
Second: NCC(O)CN1CCc2ccccc2C1 (stereo unspecified)
The melting point of the first is higher: 128 to 130 °C for the first, 59 to 61 °C for the second.

First: CCc1nc(N)nc(SC)n1
Second: O=C(O)c1cc([N+](=O)[O-])c2nsnc2c1
The melting point of the first is lower: 143 to 145 °C for the first, 199 to 201 °C for the second.

With `COCCNC(=O)CC#N` the melting point was 78 to 80 °C.
